# Experimental data: patent publication US7855205B2, “Pyrimidinyl substituted fused-pyrrolyl compounds useful in treating kinase disorders” (Janssen Pharmaceutica NV, priority 2004, dated 2010)
# What was measured:
# HER2 = target: T1, HER2 (Homo sapiens, UniProt P04626); experiment: HER2 kinase Screening Assay; format: biochemical; conditions: 33P-γ-ATP incorporation, 10 μM ATP
# T1 construct: polyhistidine (N)
# A375 malignant melanoma = experiment: Inhibition of cell proliferation (14C-thymidine incorporation), A375; format: cell-based, human; conditions: Homo sapiens, A-375
# Procedure, shortened: (§1)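 Cells (3000-8000/well) grown 24 h at 37° C, 5% CO2, then given compound in DMSO for 24 h before adding methyl 14C-thymidine (0.2 uCi/well) for a further 24 h with drug. After PBS washes, incorporation into DNA counted by scintillation.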
# CDK1:Cyclin-B = target: T2, CDK1:Cyclin-B (Homo sapiens, UniProt P06493); experiment: CDK1 Screening Assay; format: biochemical; conditions: 33P-γ-ATP incorporation, 10 μM ATP
# T2 construct: purchased New England Biolabs, Beverly, Mass; 6020; host or cells: insect cells
# T2 sequence (P06493 whole entry): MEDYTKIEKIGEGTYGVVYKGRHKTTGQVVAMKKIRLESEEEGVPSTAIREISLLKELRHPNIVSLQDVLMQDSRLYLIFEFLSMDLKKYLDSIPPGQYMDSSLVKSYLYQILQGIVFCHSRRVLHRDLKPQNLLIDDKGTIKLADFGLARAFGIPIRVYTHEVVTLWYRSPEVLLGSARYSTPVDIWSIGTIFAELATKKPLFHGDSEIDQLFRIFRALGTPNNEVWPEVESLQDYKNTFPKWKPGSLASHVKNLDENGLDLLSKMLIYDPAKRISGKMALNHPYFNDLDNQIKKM
# T2 sequence (P14635 whole entry partner): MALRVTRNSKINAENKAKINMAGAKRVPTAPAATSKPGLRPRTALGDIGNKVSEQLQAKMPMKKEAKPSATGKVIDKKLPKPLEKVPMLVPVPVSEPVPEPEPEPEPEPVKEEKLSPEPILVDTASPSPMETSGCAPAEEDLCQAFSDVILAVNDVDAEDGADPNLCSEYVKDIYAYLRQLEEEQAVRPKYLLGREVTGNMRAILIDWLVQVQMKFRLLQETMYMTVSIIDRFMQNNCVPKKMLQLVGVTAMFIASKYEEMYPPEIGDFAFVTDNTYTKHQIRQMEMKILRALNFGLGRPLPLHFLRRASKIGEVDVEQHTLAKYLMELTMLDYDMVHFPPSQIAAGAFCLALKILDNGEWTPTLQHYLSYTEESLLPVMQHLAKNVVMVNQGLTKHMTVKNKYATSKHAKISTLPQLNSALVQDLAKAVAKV
# Procedure, shortened: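 Human CDK1/cyclin B co-expressed in insect cells (30 ng/well) in 50 mM Tris pH 8, 10 mM MgCl2, with 10 μM ATP, 33P-γ-ATP and 0.025 μM biotinylated histone H1 peptide (reaction-mix levels); 1% DMSO final. 1 h at 30° C. 33P incorporation into streptavidin-captured peptide by scintillation counting.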
# Aurora-A = target: T3, Aurora-A (Mus musculus, UniProt P97477); experiment: Aurora-A Screening Assay; format: biochemical, murine; conditions: 33P-γ-ATP incorporation, 10 μM ATP
# T3 construct: made in house; host or cells: sf9 insect cells
# T3 sequence (P97477 1-395): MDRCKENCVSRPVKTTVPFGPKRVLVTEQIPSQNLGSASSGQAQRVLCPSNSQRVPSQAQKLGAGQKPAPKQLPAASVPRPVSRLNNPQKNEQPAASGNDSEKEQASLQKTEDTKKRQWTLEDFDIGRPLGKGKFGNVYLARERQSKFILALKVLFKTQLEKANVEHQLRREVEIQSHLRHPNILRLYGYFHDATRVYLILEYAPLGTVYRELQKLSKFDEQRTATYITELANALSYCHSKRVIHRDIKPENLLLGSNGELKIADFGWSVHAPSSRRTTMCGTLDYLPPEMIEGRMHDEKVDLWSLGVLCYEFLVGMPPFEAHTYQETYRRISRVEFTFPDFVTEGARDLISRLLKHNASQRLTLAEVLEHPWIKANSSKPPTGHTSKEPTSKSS
# VEGF-R2 = target: T4, VEGF-R2 (Rattus norvegicus, UniProt O08775); experiment: VEGF-R2 Screening Assay; format: biochemical; conditions: 33P-γ-ATP incorporation, 10 μM ATP
# T4 construct: polyhistidine (N)
# T4 sequence (O08775 786-1343): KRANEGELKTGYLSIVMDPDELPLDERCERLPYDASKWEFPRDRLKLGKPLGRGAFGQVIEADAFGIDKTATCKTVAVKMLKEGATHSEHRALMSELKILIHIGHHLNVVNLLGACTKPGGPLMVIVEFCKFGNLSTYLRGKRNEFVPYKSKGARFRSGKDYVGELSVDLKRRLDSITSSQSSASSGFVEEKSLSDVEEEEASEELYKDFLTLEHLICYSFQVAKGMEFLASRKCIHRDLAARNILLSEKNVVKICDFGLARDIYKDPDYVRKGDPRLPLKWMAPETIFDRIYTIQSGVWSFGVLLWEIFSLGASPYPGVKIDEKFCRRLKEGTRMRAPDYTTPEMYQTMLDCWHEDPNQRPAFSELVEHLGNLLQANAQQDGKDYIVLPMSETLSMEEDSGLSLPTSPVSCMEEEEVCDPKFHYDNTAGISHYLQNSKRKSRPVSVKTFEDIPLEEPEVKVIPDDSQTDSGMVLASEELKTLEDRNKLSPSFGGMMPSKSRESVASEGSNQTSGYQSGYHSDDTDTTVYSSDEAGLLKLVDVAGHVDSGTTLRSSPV
# Procedure, shortened: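 The N-terminally His-tagged rat VEGF-R2 kinase domain (aa 786-1343), diluted in 50 mM Tris-HCl pH 8.0 with 0.1% BSA, phosphorylated a biotinylated histone-H1 peptide with 33P-γ-ATP on Flashplates for 1 h at 30 °C in 1% DMSO. After washes with EDTA/PBS, immobilized 33P was counted by scintillation.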
# [1] = tested on: HeLa cervical adenocarcinoma; experiment: Inhibition of cell proliferation (14C-thymidine incorporation), HeLa; format: cell-based; conditions: Homo sapiens;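 note: HeLa cells in 96-well scintillating plates, compound for 24 h then 24 h more with 14C-thymidine, counting label built into new DNA against DMSO-only control wells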
# HCT-116 colon carcinoma = experiment: Inhibition of cell proliferation (14C-thymidine incorporation), HCT-116; format: cell-based; conditions: Homo sapiens, HCT-116, HCT116
# Procedure, shortened: as §1
# RET = target: T5, RET (Homo sapiens, UniProt P07949); experiment: RET Kinase Screening Assay; format: biochemical; conditions: 33P-γ-ATP incorporation, 10 μM ATP
# T5 construct: the RET cytoplasmic domain consisting of the last 492 amino acids of the intracellular domain of the RET tyrosine kinase; histidine tag (N); made in house; host or cells: Hi5 insect cells
# T5 sequence (P07949 658-1114 limits assumed): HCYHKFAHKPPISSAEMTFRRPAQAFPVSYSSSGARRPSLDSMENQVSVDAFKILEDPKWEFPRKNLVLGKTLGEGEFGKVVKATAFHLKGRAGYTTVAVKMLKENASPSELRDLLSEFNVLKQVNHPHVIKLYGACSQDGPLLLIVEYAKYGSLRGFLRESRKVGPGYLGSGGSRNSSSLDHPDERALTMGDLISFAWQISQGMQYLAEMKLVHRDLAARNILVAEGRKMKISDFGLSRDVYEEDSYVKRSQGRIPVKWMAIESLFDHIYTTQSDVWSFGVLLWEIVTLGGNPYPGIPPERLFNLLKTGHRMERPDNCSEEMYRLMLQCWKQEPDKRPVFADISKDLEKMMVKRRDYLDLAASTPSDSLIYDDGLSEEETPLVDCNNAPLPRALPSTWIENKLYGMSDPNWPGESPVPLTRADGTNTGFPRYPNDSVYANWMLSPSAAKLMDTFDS
# T1 sequence (P04626 676-1255 limits assumed): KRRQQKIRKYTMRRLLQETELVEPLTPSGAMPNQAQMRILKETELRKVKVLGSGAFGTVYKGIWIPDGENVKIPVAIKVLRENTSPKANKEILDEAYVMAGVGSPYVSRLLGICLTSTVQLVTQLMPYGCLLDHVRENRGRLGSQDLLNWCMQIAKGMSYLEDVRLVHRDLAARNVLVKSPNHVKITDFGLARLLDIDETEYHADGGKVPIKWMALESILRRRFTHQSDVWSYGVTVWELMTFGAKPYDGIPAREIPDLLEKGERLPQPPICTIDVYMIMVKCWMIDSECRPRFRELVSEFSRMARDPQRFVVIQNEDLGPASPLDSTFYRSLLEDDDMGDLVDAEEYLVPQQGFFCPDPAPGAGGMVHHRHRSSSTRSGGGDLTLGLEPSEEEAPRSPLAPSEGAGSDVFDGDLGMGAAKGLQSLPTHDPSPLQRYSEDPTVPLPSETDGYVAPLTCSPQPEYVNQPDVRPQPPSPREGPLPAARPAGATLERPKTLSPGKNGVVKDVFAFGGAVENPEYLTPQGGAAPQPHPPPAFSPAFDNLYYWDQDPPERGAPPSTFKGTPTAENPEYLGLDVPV
IC50 (HER2) [µM],IC50 (A375 malignant melanoma) [µM],IC50 (CDK1:Cyclin-B) [µM],IC50 (Aurora-A) [µM],IC50 (VEGF-R2) [µM],IC50 [1] [µM],IC50 (HCT-116 colon carcinoma) [µM],IC50 (RET) [µM],SMILES
0.011,0.021,0.032,0.162,0.065,0.029,0.013,–,"c1cnc2[nH]cc(-c3ccnc(Nc4ccc(CCN5CCCC5)cc4)n3)c2c1 [Cpd 19, [4-(2-Pyrrolidin-1-yl-ethyl)-phenyl]-[4-(1H-pyrrolo[2,3-b]pyridin-3-yl)-pyrimidin-2-yl]-amine]"
0.012,0.024,0.039,0.257,0.066,0.03,0.025,–,"CN(C)CCc1ccc(Nc2nccc(-c3c[nH]c4ncccc34)n2)cc1 [Cpd 23, [4-(2-Dimethylamino-ethyl)-phenyl]-[4-(1H-pyrrolo[2,3-b]pyridin-3-yl)-pyrimidin-2-yl]-amine]"
0.012,0.04,0.051,0.182,0.093,0.062,0.068,–,"CNCCc1ccc(Nc2nccc(-c3c[nH]c4ncccc34)n2)cc1 [Cpd 25, [4-(2-Methylamino-ethyl)-phenyl]-[4-(1H-pyrrolo[2,3-b]pyridin-3-yl)-pyrimidin-2-yl]-amine]"
0.025,0.11,0.134,0.253,0.186,0.14,0.037,0.892,"c1cnc2[nH]cc(-c3ccnc(Nc4ccc(CCN5CCNCC5)cc4)n3)c2c1 [Cpd 20, [4-(2-piperazin-1-yl-ethyl)-phenyl]-[4-(1H-pyrrolo[2,3-b]pyridin-3-yl)-pyrimidin-2-yl]-amine]"
0.008,0.066,0.019,0.159,0.087,0.056,0.022,0.337,"OCCc1ccc(Nc2nccc(-c3c[nH]c4ncccc34)n2)cc1 [Cpd 1, 2-{4-[4-(1H-Pyrrolo[2,3-b]pyridin-3-yl)-pyrimidin-2-ylamino]-phenyl}-ethanol]"
–,0.25,0.04,0.29,0.2,0.22,0.23,~10,"Cc1ccc(Nc2nccc(-c3c[nH]c4ncccc34)n2)cc1 [Cpd 10, [4-(1H-Pyrrolo[2,3-b]pyridin-3-yl)-pyrimidin-2-yl]-p-tolyl-amine]"
0.011,0.055,0.074,0.173,0.084,0.035,0.018,0.587,"c1cnc2[nH]cc(-c3ccnc(Nc4ccc(CCN5CCOCC5)cc4)n3)c2c1 [Cpd 22, [4-(2-Morpholin-4-yl-ethyl)-phenyl]-[4-(1H-pyrrolo[2,3-b]pyridin-3-yl)-pyrimidin-2-yl]-amine]"
–,0.233,0.0408,0.785,0.342,0.292,0.264,1.15,"CN1CCN(CCc2ccc(Nc3nccc(-c4c[nH]c5ncccc45)n3)c(Cl)c2)CC1 [Cpd 55, {2-Chloro-4-[2-(4-methylpiperizin-1-yl)ethyl]phenyl}-[4-(1H-pyrrolo[2,3-b]pyridin-3-yl)-pyrimidin-2-yl]-amine]"

# More lines, now with the values behind:
SMILES,IC50 (HER2) [µM],IC50 (A375 malignant melanoma) [µM],IC50 (CDK1:Cyclin-B) [µM],IC50 (Aurora-A) [µM],IC50 (VEGF-R2) [µM],IC50 [1] [µM],IC50 (HCT-116 colon carcinoma) [µM],IC50 (RET) [µM]
"CCNCCc1ccc(Nc2nccc(-c3c[nH]c4ncccc34)n2)cc1 [Cpd 26, [4-(2-Ethylamino-ethyl)-phenyl]-[4-(1H-pyrrolo[2,3-b]pyridin-3-yl)-pyrimidin-2-yl]-amine]",0.006,0.0222,0.014,0.157,0.094,0.026,0.0135,–
"COc1cc(Nc2nccc(-c3c[nH]c4ncccc34)n2)cc(OC)c1OC [Cpd 2, [4-(1H-Pyrrolo[2,3-b]pyridin-3-yl)-pyrimidin-2-yl]-(3,4,5-trimethoxy-phenyl)-amine]",0.206,0.75,0.169,0.063,0.046,0.33,0.56,–
"c1ccc(Nc2nccc(-c3c[nH]c4ncccc34)n2)cc1 [Cpd 3, Phenyl-[4-(1H-pyrrolo[2,3-b]pyridin-3-yl)-pyrimidin-2-yl]-amine]",0.032,0.468,0.054,0.159,0.213,0.382,0.26,1
"CN1CCN(CCc2ccc(Nc3nccc(-c4c[nH]c5ncccc45)n3)cc2)CC1 [Cpd 21, {4-[2-(4-Methyl-piperazin-1-yl)-ethyl]-phenyl}-[4-(1H-pyrrolo[2,3-b]pyridin-3-yl)-pyrimidin-2-yl]-amine]",0.009,0.0295,0.068,0.197,0.075,0.0315,0.0159,–
"CCN(CC)CCc1ccc(Nc2nccc(-c3c[nH]c4ncccc34)n2)cc1 [Cpd 24, [4-(2-Diethylamino-ethyl)-phenyl]-[4-(1H-pyrrolo[2,3-b]pyridin-3-yl)-pyrimidin-2-yl]-amine]",0.009,0.031,0.028,0.244,0.089,0.034,0.018,–
"OCCOc1ccc(Nc2nccc(-c3c[nH]c4ncccc34)n2)cc1 [Cpd 4, 2-{4-[4-(1H-Pyrrolo[2,3-b]pyridin-3-yl)-pyrimidin-2-ylamino]-phenoxy}-ethanol]",0.01,0.061,0.021,0.173,0.01,0.062,0.062,1.41
CN(C)CCc1ccc(Nc2nccc(-c3c[nH]c4ncccc34)n2)c(Cl)c1 [Cpd 54],–,0.215,0.0612,0.908,2.31,0.281,0.269,4.06
"Cc1cccc(C)c1Nc1nccc(-c2c[nH]c3ncccc23)n1 [Cpd 35, (2,6-Dimethylphenyl)-[4-(1H-pyrrolo[2,3-b]pyridin-3-yl)-pyrimidin-2-yl]-amine]",–,0.0369,0.017,0.556,0.975,0.0903,0.0331,1
